Holding throughout (format): in vivo
Test [1] deals with Mongrel dogs. The test is described as follows: Coronary blood flow increase effect, nonischemic condition. The settings on record: for Coronary blood flow: 8-SPT and/or L-NAME alone, before Ap4A, N = 1 - 2. As to the method: (§1) Mongrel dogs weighing 18-22 kg were anesthetized with pentobarbital sodium (30 mg/kg). The trachea was intubated, and the dog was ventilated with room air with oxygen. The chest was opened through the left fifth intercostal space, and the heart was suspended in a pericardial cradle. The left anterior descending coronary artery was cannulated and perfused with blood via the carotid artery through an extracorporeal bypass tube after heparinization (500 units/kg). Coronary blood flow (CBF) was measured with an electromagnetic flow probe attached to the bypass tube, and coronary perfusion pressure (CPP) was monitored at the tip of the coronary arterial cannula. A small, short collecting tube was cannulated into a small coronary vein near the center of the perfused area to sample coronary venous blood. The drained venous blood was collected in a reservoir placed at the level of the left atrium. A high fidelity of left ventricular pressure and its first derivative were measured by a micromanometer (model P-5, Konigsberg Instruments, Inc., Pasadena, Calif.) placed in the left ventricular cavity through the apex. A pair of ultrasonic crystals was placed in the center of the perfused area about 1 cm apart to measure myocardial segment length with an ultrasonic dimension gauge (5 MHz, Schuessler, Cardiff by the Sea, Calif.). End-diastolic length (EDL) was determined at the R wave of the electrocardiogram, and end-systolic length (ESL) was determined at the minimal dP/dt. Fractional shortening was calculated by (EDL-ESL)/EDL as an index of myocardial contractility of the perfused area.
After stabilization, a physiological saline solution […], with the dosage thereof increased to 0.5, 1, 2, 4 and 8 μg/kg/min, and the changes in coronary blood flow were measured in order to assess the coronary blood flow increase effect of Ap4A.
8-sulfophenyltheophylline (hereinafter referred to as 8-SPT) serving as adenosine P1 receptor antagonist with a dose of 25 μg/kg/min was tested.
The above test was also repeated by replacing 8-SPT with N^G -nitro-L-arginine methyl ester (hereinafter referred to as L-NAME) serving as an endothelial-cell-induced nitric oxide (NO) synthesis inhibitor with a dose of 3 μg/kg/min(ic).
The above test was then repeated using 8-SPT and L-NAME in combination.

Test [2] relates to Mongrel dogs. The test is described as follows: Lactate extraction ratio and pH of venous blood during ischemia. To be noted: for pH of venous blood / Lactate extraction ratio: ischemia (1/3 blood flow); for pH of venous blood: control 7.46, 1/3 control 7.23; for Lactate extraction ratio: control 26.5, 1/3 control -67.9. The procedure:
as §1
Namely, the lactate extraction ratio was obtained by coronary arteriovenous difference in lactate concentration multiplied by 100 and divided by arterial lactate concentration.
(§2) After stabilization, CPP was decreased with partial occlusion of the bypass tube to the left anterior descending coronary artery such that CBF decreased to one third of the control flow. The low CPP was maintained during this test.
(§3) Blood sampling from coronary veins and coronary arteries was conducted. Then the intracoronary administration of Ap4A was stopped. The lowered coronary perfusion pressure was further maintained for 10 minutes.
(§4) The above test was repeated by replacing Ap4A with adenosine with the dosage thereof being changed to 4, 8 and 16 μg/kg/min.
As mentioned previously, in the above-mentioned experimental systems, lactate extraction ratio and pH of venous blood were measured at the time of the intracoronary administration of Ap4A and also at the time of the intracoronary administration of adenosine.

The test system of test [3] is Mongrel dogs. The experiment in a line: Amelioration of myocardial ischemia: coronary blood flow, fractional shortening and perfusion pressure during factitious 1/3 blood flow. The settings on record: for Myocardial fractional shortening / Coronary blood flow / Coronary perfusion pressure: ischemia (1/3 blood flow); for Myocardial fractional shortening: control 26.9, 1/3 control 5.3; for Coronary blood flow: control 91.3, 1/3 control 21.2; for Coronary perfusion pressure: control 93.0, 1/3 control 57.0. As to the method:
as §1, §2, §3, §4

Where [4] appears, read: adenosine 4 μg/kg/min intracoronary.
The mark [5] stands for this setting: adenosine 8 μg/kg/min intracoronary.
The mark [6] stands for this setting: adenosine 16 μg/kg/min intracoronary.

Data on three molecules can be found in patent US5571524A, “Agent for curing ischemic myocardial disease” (Unitika Ltd., priority 1994, dated 1996).

Structures are written as SMILES.

For the molecule `Cn1c(=O)c2[nH]c(-c3ccc(S(=O)(=O)O)cc3)nc2n(C)c1=O` [8-SPT, 8-sulfophenyltheophylline, reference compound], in the test on Mongrel dogs [1] (8-SPT 25 μg/kg/min), the “inhibition of the effect of adenosine” value is on record as “completely inhibited”. The Coronary blood flow in the test on Mongrel dogs [1] turned out to be 93.7 ml/100 g/min.

For the molecule `Nc1ncnc2c1ncn2[C@@H]1O[C@H](CO)[C@@H](O)[C@H]1O` [Adenosine, adenosine], in the test with Mongrel dogs [2] (ischemia), the “amelioration of lactate extraction ratio and pH” value was “no such amelioration effects”. In addition, the “pH of venous blood” value was 7.19 with Mongrel dogs [2] (setting [4]), 7.25 in the test with Mongrel dogs [2] (setting [5]) and 7.22 with Mongrel dogs [2] (setting [6]). The Lactate extraction ratio with Mongrel dogs [2] (setting [4]) is -73.2%; with Mongrel dogs [2] (setting [5]), -69.8%; in the test with Mongrel dogs [2] (setting [6]), -73.2%. Further, the Myocardial fractional shortening worked out at 5.9% in the test with Mongrel dogs [3] (adenosine 4 μg/kg/min), 3.9% in the test on Mongrel dogs [3] (adenosine 8 μg/kg/min) and 5.3% in the test on Mongrel dogs [3] (adenosine 16 μg/kg/min). In addition, the Coronary blood flow with Mongrel dogs [3] (adenosine 4 μg/kg/min), in the test with Mongrel dogs [3] (adenosine 8 μg/kg/min) and with Mongrel dogs [3] (adenosine 16 μg/kg/min) was 18.2 ml/100 g/min in each case. Also, the Coronary perfusion pressure in the test with Mongrel dogs [3] (adenosine 4 μg/kg/min), in the test on Mongrel dogs [3] (adenosine 8 μg/kg/min) and in the test on Mongrel dogs [3] (adenosine 16 μg/kg/min) was 56.0 mmHg each time. In addition, the “changes in coronary blood flow and myocardial fractional shortening” value with Mongrel dogs [3] (ischemia, adenosine 4, 8 and 16 μg/kg/min) is “no substantial changes in coronary blood flow and myocardial fractional shortening”. In the test on Mongrel dogs [3] (mongrel dogs in a state of excessive ischemia), the “amelioration effect on myocardial ischemia” value is on record as “unaffected”.

In the case of `COC(=O)[C@@H](N)CCCNC(=N)N[N+](=O)[O-]` [L-NAME, N^G -nitro-L-arginine methyl ester, reference compound], the Coronary blood flow in the test on Mongrel dogs [1] was 90.3 ml/100 g/min.
